Data reported in US12358935B2, “Targeting redox-active pyridinium cations to mitochondria to inhibit proliferation of drug-resistant cancer cells” (The Medical College of Wisconsin, Inc., priority 2018, dated 2025).
Entries after “also recorded” stand apart in the source; their conditions may differ. Where two headings read alike, the source gives them in different places.

Key:
LS513 cells [1] = assay: Cell proliferation, IncuCyte cell confluence; type: cell-based, human; details: for IC50: estimated from concentration dependence
Method: FIG. 8. Effect of Mito-Py compounds (10 μM) on the proliferation of LS513 cells. (A) Effect of the substituent on the pyridinium ring. (B) Effect of the alkyl linker length in Mito-NP.
FIG. 9. Effect of concentration of Mito-NP-C8 and Mito-NP-C10 on the LS513 cell confluence. Dashed lines correspond to 50% cell confluence.
Antiproliferative effects of mitochondria-targeted pyridinium cations. To test if the mitochondrial redox stress induced by Mito-Py compounds would translate into inhibition of cancer cell proliferation, we compared the effects of Mito-Py of different redox potential and different alkyl linker length on proliferation of LS513 cells. We used the IncuCyte™ Live-Cell Imaging Analyzer that provides real-time cell confluence data (FIG. 8).

LS513 colon cancer cells [2] = assay: Superoxide production, hydroethidine (HE) assay with HPLC of 2-OH-E+; type: cell-based, human; details: 50 μM, 1 h pre-incubation then 1 h HE probe
Method: FIGS. 5A-5B. Stimulation of intracellular superoxide of Mito-Py. LS513 colon cancer cells were pre-incubated for 1 h with 50 μM Mito-Py followed by 1-h incubation with the HE probe. 2-OH-E^+ is a specific product of the reaction of the probe with superoxide. (A) Effect of the substituent on the pyridinium ring. (B) Effect of the alkyl linker length in Mito-NP.
Induction of superoxide production by mitochondria-targeted pyridinium cations.

LS513 cells [3] = assay: Cell death, Sytox Green; type: cell-based, human; details: prolonged (>24 h) incubation
cytosolic Prx1 = assay: Redox status of peroxiredoxin 1; type: cell-based, human; details: MiaPaCa2 cells
Source text: (§1) FIG. 15. Effect of Mito-NP on the redox status of cytosolic (Prx1) and mitochondrial (Prx3) peroxiredoxins in MiaPaCa2 cells. *p<0.05, ***p<0.001.
(§2) 2.2. Prx oxidation. Increased production of O2.^− results in elevated H2O2 flux. We tested the effect of Mito-NP on the redox status of cytosolic (Prx1) and mitochondrial (Prx3) peroxiredoxins (FIG. 15A).

Panc1 cells = assay: Inhibition of pancreatic cancer cell growth; type: cell-based, human
Method: (§3) FIG. 12. (A) Antiproliferative potency of Mito-NP against different pancreatic cancer cells. (B) Comparison of the antiproliferative effects of Mito-NP, with its untargeted analogs (10 μM each).
(§4) 1. Antiproliferative and cytotoxic effects in pancreatic cancer cells. […] To determine the cytotoxic potency of Mito-NP, we used Sytox Green fluorescent marker, which accumulates in dead cells and increases its fluorescence yield upon binding DNA.

mitochondrial Prx3 [4] = assay: Redox status of peroxiredoxin 3; type: cell-based, human; details: MiaPaCa2 cells
Source text: as §1, §2

FC1242 cells = assay: Inhibition of pancreatic cancer cell growth; type: cell-based, mouse
Method: as §3, §4

MiaPaCa2 cells [5] = type: cell-based
Method: (§5) FIG. 13. […] Cells were stained with Sytox Green dye after 48-h treatment with the compounds to label dead cells.
FIG. 19. […] MiaPaCa2 cells were incubated with the compounds for 5 days and cells counted (A) or for 24 h, followed by labeling with Sytox Green dead cell fluorescent stain (B).
as §4
We treated pancreatic cancer cells with Mito-NP or Mito-NPH and the intracellular levels of both oxidized, redox-cycling capable Mito-NP, and its cell membrane-permeable reduced precursor, Mito-NPH, were measured using LC-MS/MS. […] The dynamics of inhibition of mitochondrial respiration by Mito-NPH and Mito-NP was used to follow the compounds' uptake rates. […] Next, we tested the effects of Mito-NPH on MiaPaCa2 cell proliferation and survival. […] 5. Syngraft mouse model. We have established a preliminary syngraft model using mouse FC1242 PDAC cell line. […] Tumor size was measured using calipers and by weighing the tumor tissues at the completion of the study. […] The tumor tissues were analyzed for the level of Mito-NP and Mito-NPH 24 h after the last injection of Mito-NPH.

MiaPaCa2 cells [6] = assay: Inhibition of pancreatic cancer cell growth; type: cell-based, human
Method: as §3
FIG. 19. Antiproliferative (A) and cytotoxic (B) potency of Mito-NP vs. Mito-NPH. MiaPaCa2 cells were incubated with the compounds for 5 days and cells counted (A) or for 24 h, followed by labeling with Sytox Green dead cell fluorescent stain (B).
as §4
We treated pancreatic cancer cells with Mito-NP or Mito-NPH and the intracellular levels of both oxidized, redox-cycling capable Mito-NP, and its cell membrane-permeable reduced precursor, Mito-NPH, were measured using LC-MS/MS. […] The increased intracellular level of Mito-NP upon treatment with Mito-NPH also translated into 2-fold stronger stimulation of intracellular O2.^− production, as measured by monitoring O2.^−-specific product of hydroethidine oxidation, 2-OH-E^+ (FIG. 18C). […] Tumor size was measured using calipers and by weighing the tumor tissues at the completion of the study. […] The tumor tissues were analyzed for the level of Mito-NP and Mito-NPH 24 h after the last injection of Mito-NPH.

MiaPaCa2 cells [7] = assay: Bioenergetic function, Seahorse XF96 flux analyzer; type: cell-based, human
Method: FIG. 16. Inhibition of mitochondrial respiration by Mito-NP in MiaPaCa2 cells. (A) Mito-NP injected during the measurements. (B) Cells pretreated with Mito-NP for 24 h. (C) Effect of Mito-NP concentration on ATP-linked respiration rate after 1 h and 24 h incubation. (D) Effect of Mito-NP concentration on glycolytic and mitochondrial ATP production rates after 24-h incubation.
(§6) FIG. 18. (A) Intracellular level of Mito-NP and Mito-NPH. (B) Dynamics of inhibition of mitochondrial respiration by Mito-NP and Mito-NPH. (C) Intracellular generation. 10 μM Mito-NP or Mito-NPH was used.
Immediately (1 h) after injection, a high concentration of Mito-NP (100 μM) was needed to block ATP-linked respiration (FIG. 16A,C). […] One of the hallmarks of cancer cells is their flexibility in using different energetic substrates to sustain growth in the presence of metabolism-targeted drugs.
(§7) We treated pancreatic cancer cells with Mito-NP or Mito-NPH and the intracellular levels of both oxidized, redox-cycling capable Mito-NP, and its cell membrane-permeable reduced precursor, Mito-NPH, were measured using LC-MS/MS. […] The dynamics of inhibition of mitochondrial respiration by Mito-NPH and Mito-NP was used to follow the compounds' uptake rates. […] The increased intracellular level of Mito-NP upon treatment with Mito-NPH also translated into 2-fold stronger stimulation of intracellular O2.^− production, as measured by monitoring O2.^−-specific product of hydroethidine oxidation, 2-OH-E^+ (FIG. 18C). […] Next, we tested the effects of Mito-NPH on MiaPaCa2 cell proliferation and survival. […] 5. Syngraft mouse model. We have established a preliminary syngraft model using mouse FC1242 PDAC cell line. After the tumor has been established and detectable by palpation (seven days after injection of tumor cells), Mito-NPH (0.2 mg per injection) was administered three times per week. Tumor size was measured using calipers and by weighing the tumor tissues at the completion of the study. […] The tumor tissues were analyzed for the level of Mito-NP and Mito-NPH 24 h after the last injection of Mito-NPH.

MiaPaCa2 cells [8] = assay: Cellular oxidants, HE probe with HPLC profiling; type: cell-based, human; details: 10 μM
Method: FIG. 14. Stimulation of cellular oxidants by Mito-NP in pancreatic cancer cells. Profiles of HE oxidation products in MiaPaCa2 cells treated with Mito-NP (10 μM, 4 h).
as §6
2.1. Generation of O2.^− and other oxidants. […] We have confirmed the mitochondrial localization of O2.^− production using Mito-SOX (Mito-HE-C6) probe with HPLC-based detection of, 2-OH-Mito-E^+, the O2.^−-specific oxidation product of MitoSOX (not shown).
as §7

[9] = tested on: HPNE non-tumorigenic pancreatic duct cell line; assay: Cytotoxicity, Sytox Green dead cell stain; type: cell-based, human; details: HPNE non-cancer cells, 48-h treatment
Source text: as §5, §4

FC1242 PDAC tumor = assay: Syngraft mouse model, tumor growth; type: in vivo; details: 0.2 mg per injection, three times per week, 9 days of treatment, FC1242 syngraft in mice
Source text: (§8) FIG. 20. In vivo effects of Mito-NPH on the FC1242 PDAC tumor growth in mice. (A) Tumor growth curves; (B) tumor wet weight after 9 days of treatment; and (C) LC-MS/MS traces of Mito-NP, Mito-NPH, and their metabolites: hydroxylamine (Mito-HAP) and amine (Mito-AP) derivatives extracted from tumor. n=5 per group, *p<0.05
as §7, with “After the tumor has been established and detectable by palpation (seven days after injection of tumor cells), Mito-NPH (0.2 mg per injection) was administered three times per week.” left out

[10] = Tumor tissue compound levels, LC-MS/MS; type: in vivo, mouse; details: 24 h after the last injection of Mito-NPH
Source text: as §8
as §7, with “After the tumor has been established and detectable by palpation (seven days after injection of tumor cells), Mito-NPH (0.2 mg per injection) was administered three times per week.” left out

LS513 colon cancer cells [11] = assay: Oxygen consumption rate / mitochondrial respiration; type: cell-based, human
Method: FIG. 7. Effect of Mito-NP-C10 (0-100 μM) on the rates of oxygen consumption (OCR) by LS513 colon cancer cells, and on the cell response to mitochondrial stressors: oligomycin (ATP synthase inhibitor), dinitrophenol (DNP, mitochondrial uncoupler) and antimycin A (mitochondrial complex III inhibitor).
Induction of bioenergetic stress. To test the effect of Mito-NP-C10 on the bioenergetic function of LS513 cells, we monitored the mitochondrial respiration in response to acute addition of the compound at different doses (FIG. 7).

mitochondrial Prx3 [12] = assay: Redox blotting of peroxiredoxin 3; type: cell-based, human; details: 10 μM, 1 h, LS513 cells
Method: FIG. 6. Effect of Mito-NP-C10 (10 μM, 1 h) on the redox status of cytosolic (Prx1) and mitochondrial (Prx3) peroxiredoxins. **p<0.01
Intracellular localization of redox stress. To understand the fate of superoxide induced by Mito-NP-C10 and determine the localization of the redox cycling process, we performed redox blotting of peroxiredoxin isoforms 1 and 3 (Prx1 and Prx3).

O=[N+]([O-])c1ccc[n+](CCCCCCCC[P+](c2ccccc2)(c2ccccc2)c2ccccc2)c1 [Mito-NP-C8]
IC50 (LS513 cells [1]): 13000 nM | superoxide production (2-OH-E+) (LS513 colon cancer cells [2]): stimulated superoxide production | cell death (Sytox Green) (LS513 cells [3]): results in cell death

O=[N+]([O-])c1ccc[n+](CCCCCCCCCC[P+](c2ccccc2)(c2ccccc2)c2ccccc2)c1 [Mito-NP]
oxidation of cytosolic Prx1 (cytosolic Prx1): only modest effect on cytosolic Prx1 | IC50 (Panc1 cells): 2800 ± 300 nM | oxidation of mitochondrial Prx3 (mitochondrial Prx3 [4]): strong oxidation of mitochondrial Prx3 | IC50 (FC1242 cells): 3100 ± 100 nM | cell proliferation (confluence) (LS513 cells [1]; 10 μM): blocked the proliferation of colon cancer cells | cell death (Sytox Green) (MiaPaCa2 cells [5]; 48-h treatment): dose-dependently induced death of MiaPaCa2 cells; also recorded: significantly stronger inducer of MiaPaCa2 cell death than Mito-Met | IC50 (MiaPaCa2 cells [6]; read-out: IC50 (cell growth)): 2700 ± 200 nM | mitochondrial respiration (MiaPaCa2 cells [7]): time- and concentration-dependent inhibition of mitochondrial respiration | ATP-linked respiration (MiaPaCa2 cells [7]; 10 μM, 24-h incubation): complete inhibition of ATP-linked respiration | rate of mitochondrial ATP production (MiaPaCa2 cells [7]; 24-h incubation): decrease in the rate of mitochondrial ATP production | concentration needed to block ATP-linked respiration (MiaPaCa2 cells [7]; 1 h after injection): 100 µM | glycolytic ATP production (MiaPaCa2 cells [7]; concentrations higher than 10 μM, 24-h incubation): decreased at higher concentrations | glycolytic ATP production (MiaPaCa2 cells [7]; concentrations up to 10 μM, 24-h incubation): remained unchanged | O2.- production (2-OH-E+) (MiaPaCa2 cells [8]; 4 h): significant increase | other HE oxidation products (MiaPaCa2 cells [8]; 4 h): An increased level of other oxidation products | cell death (Sytox Green) [9]: No induction of cell death

O=[N+]([O-])C1=CN(CCCCCCCCCC[P+](c2ccccc2)(c2ccccc2)c2ccccc2)C=CC1 [Mito-NPH]
cytotoxic potency (Sytox Green) vs Mito-NP (MiaPaCa2 cells [5]; 24 h): significantly stronger cytotoxic agent | IC50 (MiaPaCa2 cells [6]; 5 days incubation, read-out: IC50 (antiproliferative, cell count)): 1200 ± 100 nM | dynamics of inhibition of mitochondrial respiration vs Mito-NP (MiaPaCa2 cells [7]; 10 μM): More efficient inhibition of mitochondrial respiration | stimulation of intracellular O2.- production (2-OH-E+) vs Mito-NP (MiaPaCa2 cells [8]): 2 fold | tumor growth (size, wet weight) (FC1242 PDAC tumor): inhibition of the tumor growth | compound level in tumor tissues [10]: detected both Mito-NP and Mito-NPH

O=[N+]([O-])c1ccc[n+](CCCCCCCCCC[P+](c2ccccc2)(c2ccccc2)c2ccccc2)c1 [Mito-NP-C10]
IC50 (LS513 cells [1]): 6000 nM | superoxide production (2-OH-E+) (LS513 colon cancer cells [2]): most potent inducer of superoxide production | response to mitochondrial stressors (oligomycin, DNP, antimycin A) (LS513 colon cancer cells [11]; 0-100 μM): a loss in response to oligomycin | mitochondrial respiration rates (OCR) (LS513 colon cancer cells [11]; 0-100 μM, acute addition): time- and concentration-dependent inhibition in mitochondrial respiration rates | antimycin A-independent oxygen consumption (LS513 colon cancer cells [11]; 30 and 100 μM): increased the rates of antimycin A-independent oxygen consumption | cell death (Sytox Green) (LS513 cells [3]): results in cell death | oxidation of mitochondrial Prx3 (mitochondrial Prx3 [12]): induces significant oxidation of mitochondrial Prx3
